Patent publication US20240174679A1, “HETEROAROYL AMIDES AS LRRK2 INHIBITORS, PHARMACEUTICAL COMPOSITIONS, AND USES THEREOF” (MERCK SHARP & DOHME LLC, priority 2021, published 2024)

Target: GST tagged truncated human mutant G2019S LRRK2 (Homo sapiens (Human), UniProt Q5S007, G2019S)
Assay: LRRK2 Km ATP LanthaScreen Assay
Type: biochemical
Conditions: 134 μM ATP (Km ATP), LRRKtide substrate, negative log of mean IC50 (molar)
In short: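 Truncated GST-tagged G2019S LRRK2 (1.25 nM enzyme solution) was preincubated with compound for 15 min at rt, then reacted for 90 min with fluorescein-LRRKtide and 134 μM ATP (Km) in Tris pH 8.5/MgCl2 buffer. After an EDTA stop, TR-FRET used a Tb anti-pERM antibody (520/495 nm ratio). IC50 came from a 4-parameter fit and is reported as pIC50, mean of several runs.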

GST tagged truncated human mutant G2019S LRRK2, sequence (Q5S007 970-2527 G2019S): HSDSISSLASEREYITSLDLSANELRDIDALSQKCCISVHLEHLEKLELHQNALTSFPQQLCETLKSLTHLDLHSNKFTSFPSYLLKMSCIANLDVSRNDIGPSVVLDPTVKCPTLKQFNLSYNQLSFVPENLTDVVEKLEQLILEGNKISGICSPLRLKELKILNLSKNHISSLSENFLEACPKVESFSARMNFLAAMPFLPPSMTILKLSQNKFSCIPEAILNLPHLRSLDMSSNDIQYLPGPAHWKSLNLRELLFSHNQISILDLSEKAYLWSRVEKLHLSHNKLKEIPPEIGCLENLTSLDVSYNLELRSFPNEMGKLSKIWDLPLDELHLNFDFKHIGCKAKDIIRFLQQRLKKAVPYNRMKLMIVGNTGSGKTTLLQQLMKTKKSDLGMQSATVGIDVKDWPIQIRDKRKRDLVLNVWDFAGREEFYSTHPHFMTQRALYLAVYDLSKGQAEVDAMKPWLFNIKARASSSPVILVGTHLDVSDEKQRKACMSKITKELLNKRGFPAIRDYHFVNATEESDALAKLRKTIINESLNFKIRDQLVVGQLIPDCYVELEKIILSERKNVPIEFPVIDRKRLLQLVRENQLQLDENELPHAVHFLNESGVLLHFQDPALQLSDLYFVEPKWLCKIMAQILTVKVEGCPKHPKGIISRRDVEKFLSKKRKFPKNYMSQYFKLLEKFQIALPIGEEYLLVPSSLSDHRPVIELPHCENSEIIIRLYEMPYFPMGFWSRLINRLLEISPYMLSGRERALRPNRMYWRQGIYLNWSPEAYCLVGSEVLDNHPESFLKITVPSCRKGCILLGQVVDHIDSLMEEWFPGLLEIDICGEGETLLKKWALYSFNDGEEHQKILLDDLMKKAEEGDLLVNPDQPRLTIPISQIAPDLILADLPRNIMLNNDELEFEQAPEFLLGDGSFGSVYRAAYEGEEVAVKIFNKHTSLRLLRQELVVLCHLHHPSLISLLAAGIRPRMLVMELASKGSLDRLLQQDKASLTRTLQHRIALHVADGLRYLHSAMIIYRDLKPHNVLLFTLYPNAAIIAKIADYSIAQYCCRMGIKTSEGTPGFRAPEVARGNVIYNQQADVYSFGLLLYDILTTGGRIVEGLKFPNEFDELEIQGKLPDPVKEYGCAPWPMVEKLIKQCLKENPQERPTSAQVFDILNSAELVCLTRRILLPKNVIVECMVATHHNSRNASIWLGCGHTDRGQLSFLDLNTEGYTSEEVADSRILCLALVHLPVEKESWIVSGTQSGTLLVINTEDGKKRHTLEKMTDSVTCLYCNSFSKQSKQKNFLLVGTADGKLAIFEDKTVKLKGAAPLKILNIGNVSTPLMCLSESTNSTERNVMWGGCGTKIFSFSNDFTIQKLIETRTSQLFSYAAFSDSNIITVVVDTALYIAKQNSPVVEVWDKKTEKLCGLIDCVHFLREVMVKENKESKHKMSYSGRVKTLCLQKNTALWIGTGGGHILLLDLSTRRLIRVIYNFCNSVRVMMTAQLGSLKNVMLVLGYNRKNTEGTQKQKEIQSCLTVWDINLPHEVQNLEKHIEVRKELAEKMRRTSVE

SMILES: O=C(Nc1cnn(C2CCC2)c1)c1csc(-c2cccnc2)n1 [Example 9-39, N-(1-cyclobutyl-1H-pyrazol-4-yl)-2-(pyridin-3-yl)thiazole-4-carboxamide]
- LRRK2 pIC50: 7.06

SMILES: O=C(Nc1cnn(C2CC2)c1)c1csc(-c2ccn[nH]2)n1 [Example 9-40, N-(1-cyclopropyl-1H-pyrazol-4-yl)-2-(1H-pyrazol-5-yl)thiazole-4-carboxamide]
- LRRK2 pIC50: 7.06

SMILES: N#CC1(c2cccc(C(=O)Nc3cnn(CC4CCC4)c3)n2)CC1 [Example 10-1, 6-(1-Cyanocyclopropyl)-N-(1-(cyclobutylmethyl)-1H-pyrazol-4-yl)picolinamide]
- LRRK2 pIC50: 6.90

SMILES: O=C(Nc1cnn(C2CCC2)c1)c1csc(-n2cccn2)n1 [Example 11-1, N-(1-Cyclobutyl-1H-pyrazol-4-yl)-2-(1H-pyrazol-1-yl)thiazole-4-carboxamide]
- IC50 (read-out: LRRK2 pIC50 (converted)): 100 nM

SMILES: O=C(Nc1cnn(C2CCC2)c1)c1csc(-n2ccnc2)n1 [Example 11-2, N-(1-cyclobutyl-1H-pyrazol-4-yl)-2-(1H-imidazol-1-yl)thiazole-4-carboxamide]
- LRRK2 pIC50: 6.61

SMILES: Cn1cc(-c2nc(C(=O)Nc3cnn(CC4CCC4)c3)cs2)cn1 [Example 12-1, N-(1-(Cyclobutylmethyl)-1H-pyrazol-4-yl)-2-(1-methyl-1H-pyrazol-4-yl)thiazole-4-carboxamide]
- LRRK2 pIC50: 7.74

SMILES: Cn1cc(-c2nc(C(=O)Nc3cn(C4CCC4)nc3C3CC3)cs2)cn1 [Example 12-2, N-(1-cyclobutyl-3-cyclopropyl-1H-pyrazol-4-yl)-2-(1-methyl-1H-pyrazol-4-yl)-1,3-thiazole-4-carboxamide]
- LRRK2 pIC50: 7.76

SMILES: Cn1cc(-c2nc(C(=O)Nc3cn(C4CC4)nc3C3CC3)cs2)cn1 [Example 12-3, N-(1,3-dicyclopropyl-1H-pyrazol-4-yl)-2-(1-methyl-1H-pyrazol-4-yl)-1,3-thiazole-4-carboxamide]
- LRRK2 pIC50: 7.84

SMILES: CCn1cc(-c2nc(C(=O)Nc3cn(CC(F)(F)F)nc3OC)cs2)cn1 [Example 12-4, 2-(1-ethyl-1H-pyrazol-4-yl)-N-[3-methoxy-1-(2,2,2-trifluoroethyl)-1H-pyrazol-4-yl]-1,3-thiazole-4-carboxamide]
- LRRK2 pIC50: 6.57

SMILES: Cc1nn(C2CCC2)cc1NC(=O)c1csc(-c2cnn(C)c2)n1 [Example 12-5, N-(1-cyclobutyl-3-methyl-1H-pyrazol-4-yl)-2-(1-methyl-1H-pyrazol-4-yl)-1,3-thiazole-4-carboxamide]
- LRRK2 pIC50: 7.30

SMILES: COc1nn(CC(F)(F)F)cc1NC(=O)c1csc(-c2cnn(C)c2)n1 [Example 12-6, N-[3-methoxy-1-(2,2,2-trifluoroethyl)-1H-pyrazol-4-yl]-2-(1-methyl-1H-pyrazol-4-yl)-1,3-thiazole-4-carboxamide]
- LRRK2 pIC50: 7.06

SMILES: COc1nn(CC(F)(F)F)cc1NC(=O)c1csc(-c2cnn(S(C)(=O)=O)c2)n1 [Example 13-1, N-(3-Methoxy-1-(2,2,2-trifluoroethyl)-1H-pyrazol-4-yl)-2-(1-(methylsulfonyl)-1H-pyrazol-4-yl)thiazole-4-carboxamide]
- LRRK2 pIC50: 5.97
